Reference: US11267800B2, “Cyclohexyl acid triazole azines as LPA antagonists” (BRISTOL-MYERS SQUIBB COMPANY, priority 2017, dated 2022)

Target: T1, human LPA1 (Homo sapiens, UniProt Q92633)
T1 construct: expressed in transfected cells; host or cells: Chinese hamster ovary (CHO) cells
Assay: LPA1 functional antagonist assay (calcium flux)
Type: cell-based
Conditions: CHO cells overexpressing human LPA1; inhibition of calcium flux induced by 10 nM LPA; read-out: hLPA1 IC50
Protocol: The effectiveness of compounds of the present invention as LPA1 inhibitors can be determined in an LPA1 functional antagonist assay as follows:
Chinese hamster ovary cells overexpressing human LPA1 were plated overnight (15,000 cells/well) in poly-D-lysine coated 384-well microplates (Greiner bio-one, Cat #781946) in DMEM/F12 medium (Gibco, Cat #11039). Following overnight culture, cells were loaded with calcium indicator dye (AAT Bioquest Inc, Cat #34601) for 30 minutes at 37° C. The cells were then equilibrated to room temperature for 30 minutes before the assay. Test compounds solubilized in DMSO were transferred to 384 well non-binding surface plates (Corning, Cat #3575) using the Labcyte Echo acoustic dispense and diluted with assay buffer [1×HBSS with calcium/magnesium (Gibco Cat #14025-092), 20 mM HEPES (Gibco Cat #15630-080) and 0.1% fatty acid free BSA (Sigma Cat #A9205)] to a final concentration of 0.5% DMSO. Diluted compounds were added to the cells by FDSS6000 (Hamamatsu) at final concentrations ranging from 0.08 nM to 5 μM. and were then incubated for 20 min at room temperature at which time LPA (Avanti Polar Lipids Cat #857130C) was added at final concentrations of 10 nM to stimulate the cells. The compound IC50 value was defined as the concentration of test compound which inhibited 50% of the calcium flux induced by LPA alone. IC50 values were determined by fitting data to a 4-parameter logistic equation (GraphPad Prism, San Diego Calif.).

T1 sequence (Q92633 whole entry): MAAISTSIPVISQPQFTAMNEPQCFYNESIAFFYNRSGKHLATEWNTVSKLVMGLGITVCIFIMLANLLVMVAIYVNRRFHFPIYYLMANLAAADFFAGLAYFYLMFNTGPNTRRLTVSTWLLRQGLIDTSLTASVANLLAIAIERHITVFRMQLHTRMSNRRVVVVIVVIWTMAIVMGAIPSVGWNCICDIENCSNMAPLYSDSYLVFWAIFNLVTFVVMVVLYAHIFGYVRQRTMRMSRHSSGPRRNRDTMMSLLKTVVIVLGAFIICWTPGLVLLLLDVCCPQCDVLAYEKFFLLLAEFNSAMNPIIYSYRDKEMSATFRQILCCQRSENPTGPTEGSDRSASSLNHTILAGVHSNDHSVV

| Compound | IC50 |
| --- | --- |
| Cc1nc(-c2nnn(C)c2CNc2nccc(Cc3ccccc3)n2)ccc1O[C@H]1CCC[C@H](C(=O)O)C1 [Example 11] | 103 nM |
| COc1ccnc(NCc2c(-c3ccc(O[C@H]4CCC[C@H](C(=O)O)C4)c(C)n3)nnn2C)n1 [Example 12] | 56 nM |
| Cc1nc(-c2nnn(C)c2CNc2nccc(OC(C)C)n2)ccc1O[C@H]1CCC[C@H](C(=O)O)C1 [Example 14] | 46 nM |
| Cc1nc(-c2nnn(C)c2CNc2nccc(C(F)(F)F)n2)ccc1O[C@H]1CCC[C@H](C(=O)O)C1 [Example 18] | 66 nM |
| COc1ccccc1-c1ccnc(NCc2c(-c3ccc(O[C@H]4CCC[C@H](C(=O)O)C4)c(C)n3)nnn2C)n1 [Example 22] | 219 nM |
| Cc1nc(-c2nnn(C)c2CNc2ccnc(OC(C)C)n2)ccc1O[C@H]1CCC[C@H](C(=O)O)C1 [Example 25] | 145 nM |
| Cn1nnc(-c2ccc(O[C@H]3CCC[C@H](C(=O)O)C3)cn2)c1CNc1nccc(-c2ccccc2F)n1 [Example 28] | 19 nM |
| Cn1nnc(-c2ccc(O[C@H]3CCC[C@H](C(=O)O)C3)cn2)c1CNc1nccc(-c2ccccn2)n1 [Example 29] | 39 nM |
| Cn1nnc(-c2ccc(O[C@H]3CCC[C@H](C(=O)O)C3)cn2)c1CNc1nccc(Oc2ccccc2)n1 [Example 31] | 178 nM |
| COc1ccccc1-c1ccnc(NCc2c(-c3ccc(O[C@H]4CCC[C@H](C(=O)O)C4)cn3)nnn2C)n1 [Example 36] | 59 nM |
| Cc1cc(-c2ccccn2)nc(NCc2c(-c3ccc(O[C@H]4CCC[C@H](C(=O)O)C4)cn3)nnn2C)n1 [Example 37] | 166 nM |
| Cn1nnc(-c2ccc(O[C@H]3CCC[C@H](C(=O)O)C3)cn2)c1CNc1nccc(C(C)(C)C)n1 [Example 38] | 36 nM |
| Cc1nc(-c2nnn(C)c2CNc2ncc(F)c(NCC(F)(F)F)n2)ccc1O[C@H]1CCC[C@H](C(=O)O)C1 [Example 41] | 208 nM |
| CCCN(C)c1ccnc(NCc2c(-c3ccc(O[C@H]4CCC[C@H](C(=O)O)C4)c(C)n3)nnn2C)n1 [Example 46] | 304 nM |
| Cc1nc(-c2nnn(C)c2CNc2ncc(F)c(Nc3ccccc3)n2)ccc1O[C@H]1CCC[C@H](C(=O)O)C1 [Example 54] | 134 nM |
| Cc1nc(-c2nnn(C)c2CNc2ccnc(OCC(C)(C)F)n2)ccc1O[C@H]1CCC[C@H](C(=O)O)C1 [Example 55] | 189 nM |
| Cc1nc(-c2nnn(C)c2CNc2nccc(OCC(C)(C)F)n2)ccc1O[C@H]1CCC[C@H](C(=O)O)C1 [Example 56] | 52 nM |
| Cc1nc(-c2nnn(C)c2CNc2ncc(F)c(NCCC3CC3)n2)ccc1O[C@H]1CCC[C@H](C(=O)O)C1 [Example 57] | 21 nM |
| Cc1nc(-c2nnn(C)c2CNc2ncc(F)c(NCC(C)C)n2)ccc1O[C@H]1CCC[C@H](C(=O)O)C1 [Example 60] | 34 nM |
| Cc1nc(-c2nnn(C)c2CNc2ccnc(OCC(C)(C)C)n2)ccc1O[C@H]1CCC[C@H](C(=O)O)C1 [Example 61] | 233 nM |
| Cc1nc(-c2nnn(C)c2CNc2nccc(NCCc3ccc(F)cc3)n2)ccc1O[C@H]1CCC[C@H](C(=O)O)C1 [Example 62] | 63 nM |

More lines, in order of falling IC50, values ahead:

| IC50 | Compound |
| --- | --- |
| 1130 nM | Cn1nnc(-c2ccc(O[C@H]3CCC[C@H](C(=O)O)C3)cn2)c1CNc1nccc(-n2cccn2)n1 [Example 34] |
| 1050 nM | Cc1nc(-c2nnn(C)c2CNc2cc(C(C)(C)C)ncn2)ccc1O[C@H]1CCC[C@H](C(=O)O)C1 [Example 23] |
| 300 nM | Cc1cnc(NCc2c(-c3ccc(O[C@H]4CCC[C@H](C(=O)O)C4)cn3)nnn2C)nc1-c1ccccn1 [Example 30] |
| 277 nM | Cn1nnc(-c2ccc(O[C@H]3CCC[C@H](C(=O)O)C3)cn2)c1CNc1nccc(-c2cccnc2)n1 [Example 32] |
| 243 nM | Cc1nc(-c2nnn(C)c2CNc2nccc(NCCC3CC3)n2)ccc1O[C@H]1CCC[C@H](C(=O)O)C1 [Example 50] |
| 233 nM | CCCNc1ccnc(NCc2c(-c3ccc(O[C@H]4CCC[C@H](C(=O)O)C4)c(C)n3)nnn2C)n1 [Example 51] |
| 220 nM | Cc1nc(-c2nnn(C)c2CNc2ncnc(NCCC3CC3)n2)ccc1O[C@H]1CCC[C@H](C(=O)O)C1 [Example 48] |
| 218 nM | COc1cc(NCc2c(-c3ccc(O[C@H]4CCC[C@H](C(=O)O)C4)c(C)n3)nnn2C)ncn1 [Example 24] |
| 218 nM | Cc1nc(-c2nnn(C)c2CNc2ncc(F)c(N3CCC3)n2)ccc1O[C@H]1CCC[C@H](C(=O)O)C1 [Example 42] |
| 206 nM | Cc1nc(-c2nnn(C)c2CNc2nccc(N3CCCC3)n2)ccc1O[C@H]1CCC[C@H](C(=O)O)C1 [Example 17] |
| 109 nM | Cc1nc(-c2nnn(C)c2CNc2ncc(F)c(NC3CC3)n2)ccc1O[C@H]1CCC[C@H](C(=O)O)C1 [Example 45] |
| 101 nM | Cc1nc(-c2nnn(C)c2CNc2nccc(-c3ccccn3)n2)ccc1O[C@H]1CCC[C@H](C(=O)O)C1 [Example 21] |
| 82 nM | CCNc1nc(NCc2c(-c3ccc(O[C@H]4CCC[C@H](C(=O)O)C4)c(C)n3)nnn2C)ncc1F [Example 58] |
| 69 nM | Cc1nc(-c2nnn(C)c2CNc2ncc(F)c(NCC3CC3)n2)ccc1O[C@H]1CCC[C@H](C(=O)O)C1 [Example 47] |
| 69 nM | CCCCNc1nc(NCc2c(-c3ccc(O[C@H]4CCC[C@H](C(=O)O)C4)c(C)n3)nnn2C)ncc1F [Example 49] |
| 63 nM | Cc1nc(-c2nnn(C)c2CNc2ncc(F)c(NCCC(C)C)n2)ccc1O[C@H]1CCC[C@H](C(=O)O)C1 [Example 52] |
| 59 nM | Cc1nc(-c2nnn(C)c2CNc2ncc(F)c(NC(C)C)n2)ccc1O[C@H]1CCC[C@H](C(=O)O)C1 [Example 59] |
| 58 nM | Cc1nc(-c2nnn(C)c2CNc2ncc(F)c(NC3CCC3)n2)ccc1O[C@H]1CCC[C@H](C(=O)O)C1 [Example 53] |
| 46 nM | CCc1ccnc(NCc2c(-c3ccc(O[C@H]4CCC[C@H](C(=O)O)C4)c(C)n3)nnn2C)n1 [Example 40] |
| 44 nM | CCCN(C)c1nc(NCc2c(-c3ccc(O[C@H]4CCC[C@H](C(=O)O)C4)c(C)n3)nnn2C)ncc1F [Example 44] |
| 41 nM | Cc1nc(-c2nnn(C)c2CNc2nccc(-c3ccccc3)n2)ccc1O[C@H]1CCC[C@H](C(=O)O)C1 [Example 39] |
| 29 nM | Cc1cc(OC(C)C)nc(NCc2c(-c3ccc(O[C@H]4CCC[C@H](C(=O)O)C4)c(C)n3)nnn2C)n1 [Example 16] |
| 28 nM | CC(C)c1ccnc(NCc2c(-c3ccc(O[C@H]4CCC[C@H](C(=O)O)C4)cn3)nnn2C)n1 [Example 35] |
| 26 nM | Cn1nnc(-c2cnc(O[C@H]3CCC[C@H](C(=O)O)C3)cn2)c1CNc1nccc(-c2ccccc2)n1 [Example 27] |
| 19 nM | CCOc1ccnc(NCc2c(-c3ccc(O[C@H]4CCC[C@H](C(=O)O)C4)c(C)n3)nnn2C)n1 [Example 13] |
| 16 nM | Cc1nc(-c2nnn(C)c2CNc2nccc(-c3ccccc3F)n2)ccc1O[C@H]1CCC[C@H](C(=O)O)C1 [Example 20] |
| 8 nM | Cc1nc(-c2nnn(C)c2CNc2nccc(Oc3ccccc3)n2)ccc1O[C@H]1CCC[C@H](C(=O)O)C1 [Example 15] |
| 8 nM | Cc1cnc(NCc2c(-c3ccc(O[C@H]4CCC[C@H](C(=O)O)C4)c(C)n3)nnn2C)nc1-c1ccccc1 [Example 19] |
| 8 nM | Cn1nnc(-c2ccc(O[C@H]3CCC[C@H](C(=O)O)C3)cn2)c1CNc1nccc(-c2ccccc2)n1 [Example 26] |
